The subject of one data set is MC-38. In words: Antitumour activity against mouse MC38 cells in C57BL/6 mouse assessed as tumour growth inhibition at 60 mg/kg, ip, bid measured after 9 days relative to control. Particulars: MC-38, ip, 216 h, time 9 day, read-out: TGI. It is filed as functional.
The target in a further data set is Histone deacetylase 9 (Homo sapiens, UniProt Q9UKV0). In words: Inhibition of HDAC9 (unknown origin) assessed as release of 7-amino-4-methylcoumarin incubated in room temperature for 15 min measured by Spectra max microtitre plate reader.
Another data set concerns the target Histone deacetylase 4 (Homo sapiens, UniProt P56524). The experiment in a line: Inhibition of HDAC4 (unknown origin) assessed as release of 7-amino-4-methylcoumarin incubated in room temperature for 15 min measured by Spectra max microtitre plate reader.
For the next data set, the target named is Histone deacetylase 3 (Homo sapiens, UniProt O15379). In words: Inhibition of HDAC3 (unknown origin) assessed as release of 7-amino-4-methylcoumarin incubated in room temperature for 15 min measured by Spectra max microtitre plate reader.
For a further data set, the target named is Histone deacetylase 2 (Homo sapiens, UniProt Q92769). The experiment in a line: Inhibition of HDAC2 (unknown origin) assessed as release of 7-amino-4-methylcoumarin incubated in room temperature for 15 min measured by Spectra max microtitre plate reader.
For the next data set, the target named is T1, Adenosine receptor A2b (Homo sapiens, UniProt P29275).
T1 sequence (P29275 whole entry): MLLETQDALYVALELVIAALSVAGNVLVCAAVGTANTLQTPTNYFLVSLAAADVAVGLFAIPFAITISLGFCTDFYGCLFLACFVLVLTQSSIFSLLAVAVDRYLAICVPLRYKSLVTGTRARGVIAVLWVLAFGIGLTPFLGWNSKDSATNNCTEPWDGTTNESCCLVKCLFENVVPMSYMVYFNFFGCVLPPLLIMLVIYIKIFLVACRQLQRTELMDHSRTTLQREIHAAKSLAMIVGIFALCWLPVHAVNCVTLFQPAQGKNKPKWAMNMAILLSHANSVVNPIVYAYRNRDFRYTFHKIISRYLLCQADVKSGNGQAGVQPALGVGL
The experiment in a line: Displacement of [3H]DPCPX from human adenosine A2B receptor membrane (unknown origin) measured after 60 mins by scintillation counting analysis. The format is cell membranes.

Data set [1] can be described thus: Volume of distribution in ICR mouse at 5 mg/kg, iv up to 24 hrs by LC-MS/MS analysis. The format is ADME, organism-based. Particulars: in vivo.
A short description of data set [2]: MRT in ICR mouse at 5 mg/kg, iv up to 24 hrs by LC-MS/MS analysis. Particulars: in vivo. The format is ADME, organism-based.
Data set [3] is described as follows: Initial plasma concentration in ICR mouse at 5 mg/kg, iv up to 24 hrs by LC-MS/MS analysis. It is filed as ADME, organism-based.
Data set [4] is described as follows: Cmax in ICR mouse at 5 mg/kg, iv up to 24 hrs by LC-MS/MS analysis. The format is ADME, organism-based. Set-up: route intravenous, dose 5 mg/kg, time <=24. Particulars: in vivo.
A short description of data set [5]: Half life in ICR mouse at 5 mg/kg, iv up to 24 hrs by LC-MS/MS analysis. It is filed as ADME, organism-based. Particulars: in vivo.
Data set [6] can be described thus: Elimination rate constant in ICR mouse at 5 mg/kg, iv up to 24 hrs by LC-MS/MS analysis. It is filed as ADME, organism-based. Particulars: in vivo.
A short description of data set [7]: Bioavailability in ICR mouse at 20 mg/kg up to 24 hrs by LC-MS/MS analysis. It is filed as ADME, organism-based. To be noted: in vivo.
Data set [8] can be described thus: MRT in ICR mouse at 20 mg/kg, ip up to 24 hrs by LC-MS/MS analysis. The format is ADME, organism-based. Particulars: in vivo.
Data set [9] can be described thus: AUC (0 to infinity) in ICR mouse at 20 mg/kg, ip up to 24 hrs by LC-MS/MS analysis. The format is ADME, organism-based. Set-up: route intraperitoneal, dose 20 mg/kg, time <=24. To be noted: in vivo.
Data set [10] can be described thus: Cmax in ICR mouse at 20 mg/kg, ip up to 24 hrs by LC-MS/MS analysis. The format is ADME, organism-based. Particulars: in vivo. Set-up: route intraperitoneal, dose 20 mg/kg, time <=24.
A short description of data set [11]: AUC (0 to infinity) in ICR mouse at 20 mg/kg, po by LC-MS/MS analysis. The format is ADME, organism-based. Set-up: time infinity, route oral, dose 20 mg/kg. Particulars: in vivo.
Data set [12] can be described thus: Cmax in ICR mouse at 20 mg/kg, po by LC-MS/MS analysis. It is filed as ADME, organism-based. Set-up: route oral, dose 20 mg/kg. Particulars: in vivo.
In the next data set the target is Histone deacetylase 1 (Homo sapiens, UniProt Q13547). In words: Inhibition of HDAC1 (unknown origin) assessed as release of 7-amino-4-methylcoumarin incubated in room temperature for 15 min measured by Spectra max microtitre plate reader.
Data set [13] addresses T2, Protein deacetylase HDAC6 (Homo sapiens, UniProt Q9UBN7).
T2 sequence (Q9UBN7 whole entry): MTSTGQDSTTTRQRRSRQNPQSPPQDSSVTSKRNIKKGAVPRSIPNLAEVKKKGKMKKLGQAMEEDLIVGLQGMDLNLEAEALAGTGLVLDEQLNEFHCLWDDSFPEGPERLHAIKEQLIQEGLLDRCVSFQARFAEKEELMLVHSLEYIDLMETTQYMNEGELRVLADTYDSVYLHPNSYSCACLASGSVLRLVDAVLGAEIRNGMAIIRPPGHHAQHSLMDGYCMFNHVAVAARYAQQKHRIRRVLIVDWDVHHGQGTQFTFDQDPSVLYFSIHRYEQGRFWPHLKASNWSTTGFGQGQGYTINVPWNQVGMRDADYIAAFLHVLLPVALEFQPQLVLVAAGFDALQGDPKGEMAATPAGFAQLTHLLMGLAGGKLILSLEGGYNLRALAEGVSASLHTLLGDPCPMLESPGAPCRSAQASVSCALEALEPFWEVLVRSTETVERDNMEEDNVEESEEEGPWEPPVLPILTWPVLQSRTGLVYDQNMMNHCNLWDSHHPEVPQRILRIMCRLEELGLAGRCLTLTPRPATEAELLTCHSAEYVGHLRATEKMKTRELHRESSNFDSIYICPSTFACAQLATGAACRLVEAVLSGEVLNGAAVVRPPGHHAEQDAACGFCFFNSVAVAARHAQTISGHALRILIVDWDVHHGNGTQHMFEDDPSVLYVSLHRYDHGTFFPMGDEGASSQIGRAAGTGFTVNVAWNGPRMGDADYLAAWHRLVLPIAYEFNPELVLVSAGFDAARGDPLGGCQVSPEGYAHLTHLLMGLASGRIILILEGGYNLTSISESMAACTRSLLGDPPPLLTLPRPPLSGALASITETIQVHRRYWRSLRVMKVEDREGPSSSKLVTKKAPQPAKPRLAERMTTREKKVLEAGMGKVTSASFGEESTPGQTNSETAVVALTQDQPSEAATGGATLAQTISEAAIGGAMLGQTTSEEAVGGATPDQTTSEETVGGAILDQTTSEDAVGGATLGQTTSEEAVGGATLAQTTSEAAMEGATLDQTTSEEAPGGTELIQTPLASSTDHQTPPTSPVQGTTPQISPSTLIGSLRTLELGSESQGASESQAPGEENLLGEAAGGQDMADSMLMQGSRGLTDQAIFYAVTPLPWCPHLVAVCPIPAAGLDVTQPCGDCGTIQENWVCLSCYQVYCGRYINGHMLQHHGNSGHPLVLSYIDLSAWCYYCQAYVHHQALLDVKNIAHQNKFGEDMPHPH
In words: Inhibition of HDAC6 (unknown origin) assessed as release of 7-amino-4-methylcoumarin incubated in room temperature for 15 min measured by Spectra max microtitre plate reader.

Another data set concerns the target Adenosine receptor A2a (Homo sapiens, UniProt P29274). In words: Displacement of [3H]SCH58261 from adenosine A2A receptor membrane (unknown origin) measured after 60 mins by scintillation counting analysis. The format is cell membranes. On the technique in general: Loss of bound radioactivity is the signal in a displacement assay; it reports binding, not function.

What is called IC50 is the concentration that gives 50% inhibition. In general, Ki refers to the dissociation constant of the complex between target and ligand, obtained from inhibition or displacement. By Vd is commonly meant a proportionality between amount in the body and measured concentration, not a real space. High values mean wide distribution into tissue, low ones little distribution into tissue. The MRT is a mean duration of stay, worked out from the concentration-time curve. One may read the Cmax as the maximum level reached in the sampled fluid or tissue. As a reminder, the half-life is the time in which the quantity being followed falls by half. The term AUC(0-inf) denotes the area under the concentration-time curve extrapolated to infinity. The low end stands for less exposure, the high end for more exposure.

Chain of Histone deacetylase 4 (P56524 whole entry): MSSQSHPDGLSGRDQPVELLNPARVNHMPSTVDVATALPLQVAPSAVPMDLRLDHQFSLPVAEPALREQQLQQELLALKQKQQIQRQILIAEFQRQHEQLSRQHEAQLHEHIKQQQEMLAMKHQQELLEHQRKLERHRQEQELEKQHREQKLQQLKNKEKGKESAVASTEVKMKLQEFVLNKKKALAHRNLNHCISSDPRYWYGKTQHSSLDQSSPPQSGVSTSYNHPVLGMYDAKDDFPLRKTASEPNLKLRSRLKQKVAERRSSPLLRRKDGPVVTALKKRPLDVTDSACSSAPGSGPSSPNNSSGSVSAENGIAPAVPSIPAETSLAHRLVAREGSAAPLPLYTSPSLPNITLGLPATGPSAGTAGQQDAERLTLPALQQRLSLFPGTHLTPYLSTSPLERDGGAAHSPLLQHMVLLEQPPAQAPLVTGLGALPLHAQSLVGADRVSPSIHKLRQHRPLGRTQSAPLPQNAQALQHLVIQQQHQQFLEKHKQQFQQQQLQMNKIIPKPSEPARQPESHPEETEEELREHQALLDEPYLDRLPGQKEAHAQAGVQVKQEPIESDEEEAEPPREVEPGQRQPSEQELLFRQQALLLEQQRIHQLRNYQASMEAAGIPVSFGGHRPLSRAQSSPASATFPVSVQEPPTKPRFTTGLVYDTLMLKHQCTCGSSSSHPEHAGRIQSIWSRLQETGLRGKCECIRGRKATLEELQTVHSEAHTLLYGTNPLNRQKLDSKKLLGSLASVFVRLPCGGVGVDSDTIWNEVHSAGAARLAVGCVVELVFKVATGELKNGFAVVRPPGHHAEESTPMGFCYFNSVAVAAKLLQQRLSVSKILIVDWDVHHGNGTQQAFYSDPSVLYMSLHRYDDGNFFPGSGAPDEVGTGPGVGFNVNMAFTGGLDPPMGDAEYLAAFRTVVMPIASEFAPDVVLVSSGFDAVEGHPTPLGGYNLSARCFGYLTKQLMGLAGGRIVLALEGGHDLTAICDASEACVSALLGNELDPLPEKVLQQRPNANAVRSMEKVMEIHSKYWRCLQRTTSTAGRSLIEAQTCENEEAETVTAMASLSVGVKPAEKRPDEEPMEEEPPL
Chain of Histone deacetylase 9 (Q9UKV0 whole entry): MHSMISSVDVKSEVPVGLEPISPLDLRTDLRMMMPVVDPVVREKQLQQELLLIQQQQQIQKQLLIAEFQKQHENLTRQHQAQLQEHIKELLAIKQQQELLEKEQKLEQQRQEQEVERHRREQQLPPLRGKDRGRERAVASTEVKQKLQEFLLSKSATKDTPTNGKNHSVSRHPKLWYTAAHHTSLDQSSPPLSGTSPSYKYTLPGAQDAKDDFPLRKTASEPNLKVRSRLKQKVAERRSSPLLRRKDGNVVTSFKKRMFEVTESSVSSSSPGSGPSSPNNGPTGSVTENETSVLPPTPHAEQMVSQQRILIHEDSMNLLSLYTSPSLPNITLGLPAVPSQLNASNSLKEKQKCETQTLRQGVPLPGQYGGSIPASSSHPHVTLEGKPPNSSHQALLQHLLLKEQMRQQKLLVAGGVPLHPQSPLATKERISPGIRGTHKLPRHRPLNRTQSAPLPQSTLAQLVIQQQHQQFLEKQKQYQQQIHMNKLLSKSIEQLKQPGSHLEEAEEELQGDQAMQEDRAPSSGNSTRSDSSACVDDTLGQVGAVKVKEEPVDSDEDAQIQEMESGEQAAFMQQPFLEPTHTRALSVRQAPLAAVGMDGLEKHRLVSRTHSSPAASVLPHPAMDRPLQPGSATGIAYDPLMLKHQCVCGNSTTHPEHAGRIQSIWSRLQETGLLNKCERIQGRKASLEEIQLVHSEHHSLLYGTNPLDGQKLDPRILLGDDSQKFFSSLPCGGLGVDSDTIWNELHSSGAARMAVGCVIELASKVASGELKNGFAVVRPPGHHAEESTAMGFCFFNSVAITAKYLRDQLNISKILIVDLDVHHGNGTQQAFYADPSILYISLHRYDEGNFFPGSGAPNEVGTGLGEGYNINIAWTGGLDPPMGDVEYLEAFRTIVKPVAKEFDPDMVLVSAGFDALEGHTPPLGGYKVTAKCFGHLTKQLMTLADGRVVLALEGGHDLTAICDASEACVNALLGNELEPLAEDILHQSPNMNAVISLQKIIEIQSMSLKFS
Chain of Histone deacetylase 3 (O15379 whole entry): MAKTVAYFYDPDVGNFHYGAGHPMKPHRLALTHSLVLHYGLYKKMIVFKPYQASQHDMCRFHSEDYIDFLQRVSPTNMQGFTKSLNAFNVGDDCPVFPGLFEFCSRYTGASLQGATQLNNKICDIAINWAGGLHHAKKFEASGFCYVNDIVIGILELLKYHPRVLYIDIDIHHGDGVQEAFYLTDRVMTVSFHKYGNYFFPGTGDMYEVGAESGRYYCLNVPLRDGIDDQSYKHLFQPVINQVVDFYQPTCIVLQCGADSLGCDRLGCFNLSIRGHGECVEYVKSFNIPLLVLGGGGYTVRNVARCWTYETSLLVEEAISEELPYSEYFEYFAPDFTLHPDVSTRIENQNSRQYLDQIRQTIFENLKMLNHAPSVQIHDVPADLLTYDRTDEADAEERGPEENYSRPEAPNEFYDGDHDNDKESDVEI
Chain of Adenosine receptor A2a (P29274 whole entry): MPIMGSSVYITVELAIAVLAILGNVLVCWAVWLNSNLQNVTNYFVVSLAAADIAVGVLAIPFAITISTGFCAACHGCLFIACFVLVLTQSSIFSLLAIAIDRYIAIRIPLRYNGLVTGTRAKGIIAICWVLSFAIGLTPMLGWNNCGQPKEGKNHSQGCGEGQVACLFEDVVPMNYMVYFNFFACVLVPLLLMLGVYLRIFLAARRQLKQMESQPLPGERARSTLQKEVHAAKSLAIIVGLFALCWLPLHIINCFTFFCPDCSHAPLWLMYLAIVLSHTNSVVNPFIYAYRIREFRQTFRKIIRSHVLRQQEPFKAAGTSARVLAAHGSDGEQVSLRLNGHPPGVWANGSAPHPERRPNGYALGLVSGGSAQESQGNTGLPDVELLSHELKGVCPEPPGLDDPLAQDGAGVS
Chain of Histone deacetylase 1 (Q13547 whole entry): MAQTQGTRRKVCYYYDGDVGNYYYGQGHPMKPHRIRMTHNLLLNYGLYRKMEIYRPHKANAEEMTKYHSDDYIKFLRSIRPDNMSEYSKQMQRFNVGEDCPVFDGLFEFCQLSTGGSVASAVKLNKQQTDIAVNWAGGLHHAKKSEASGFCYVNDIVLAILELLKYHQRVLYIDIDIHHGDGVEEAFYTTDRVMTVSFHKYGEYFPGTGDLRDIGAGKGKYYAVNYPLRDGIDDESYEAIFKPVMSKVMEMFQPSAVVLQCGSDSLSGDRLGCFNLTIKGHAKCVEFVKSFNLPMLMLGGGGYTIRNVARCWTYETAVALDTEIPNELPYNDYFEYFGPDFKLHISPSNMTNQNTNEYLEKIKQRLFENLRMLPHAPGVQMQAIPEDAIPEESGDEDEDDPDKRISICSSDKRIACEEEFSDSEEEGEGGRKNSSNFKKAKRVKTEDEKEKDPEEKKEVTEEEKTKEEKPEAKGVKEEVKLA
Chain of Histone deacetylase 2 (Q92769 whole entry): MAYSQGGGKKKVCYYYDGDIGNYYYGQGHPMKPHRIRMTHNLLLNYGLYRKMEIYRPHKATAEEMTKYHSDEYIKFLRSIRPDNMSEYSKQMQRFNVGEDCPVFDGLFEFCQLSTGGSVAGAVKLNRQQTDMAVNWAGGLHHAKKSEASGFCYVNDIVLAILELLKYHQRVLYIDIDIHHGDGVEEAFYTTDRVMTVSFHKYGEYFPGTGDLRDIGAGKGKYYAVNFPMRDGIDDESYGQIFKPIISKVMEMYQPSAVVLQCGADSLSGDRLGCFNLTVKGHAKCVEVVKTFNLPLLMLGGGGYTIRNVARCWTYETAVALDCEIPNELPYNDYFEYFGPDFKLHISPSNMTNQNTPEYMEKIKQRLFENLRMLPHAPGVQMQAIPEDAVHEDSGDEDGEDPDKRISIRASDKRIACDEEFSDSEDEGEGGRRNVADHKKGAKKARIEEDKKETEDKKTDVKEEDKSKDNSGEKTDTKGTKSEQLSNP

For `Nc1ccccc1NC(=O)c1ccc(CCn2ncc3c2nc(N)n2nc(-c4ccco4)nc32)cc1`, the inhibition in vivo at 60 mg/kg with MC-38 stood at 95.3%. Besides, the IC50 at Histone deacetylase 9 is over 10000 nM; at Histone deacetylase 4 it was over 10000 nM; on Histone deacetylase 3, 449 nM; on Histone deacetylase 2, 179 nM; on Histone deacetylase 1 it was 80.2 nM; in [13], over 10000 nM. Besides, the Ki is 350 nM at Adenosine receptor A2b and 2.2 nM on Adenosine receptor A2a. The distribution volume (Vd) in [1] was determined as 1.19 L/kg. The mean residence time MRT in data set [2] was 20 min; in data set [8], 157 min. Also, the C0 at 24 h in data set [3] came to 4580 ng/mL. The results for the highest concentration (Cmax) in [4], in data set [10] and in data set [12] were 3320 ng/mL, 2160 ng/mL and 1590 ng/mL, respectively. Besides, the half-life in [5] is 17.1 min. This compound had a k el at 24 h in data set [6] of 0.000678 s⁻¹. The bioavailability in data set [7] was 112%. Also, the results for the AUC(0-inf) in data set [9] and in [11] were 6630 ng·h/mL and 1810 ng·h/mL, respectively.

The values above are taken from ChEMBL document CHEMBL5030563, “Structure-Based Design of Dual-Acting Compounds Targeting Adenosine A2A Receptor and Histone Deacetylase as Novel Tumor Immunotherapeutic Agents” (J Med Chem, 2021).
